{"source": "patent US20180267067A1", "about": "“METHODS FOR BIOANALYSIS OF 6-DIAZO-5-OXO-L-NORLEUCINE (DON) AND OTHER GLUTAMINE ANTAGONISTS” (THE JOHNS HOPKINS UNIVERSITY, priority 2015, published 2018)", "key": {"[1]": {"test": "DON plasma and brain concentrations in mice after i.p. administration (LC-MS after acidified butanol derivatization)", "format": "in vivo", "conditions": "for Kp at 1 h: brain/plasma", "procedure": "(§1) FIG. 5A and FIG. 5B show: (FIG. 5A) DON concentrations in plasma over time. Mice were administered DON at 1.6 mg/kg (i.v.). Mice were euthanized and blood was collected transcardially 0.25, 0.5, 1, 2, 4 and 6 hours after dosing. Blood was centrifuged, plasma collected and stored at −80° C. N-butanol containing 3N HCl (250 μL) was added directly to samples (50 μL) and centrifuged at 16,000×g for 5 min to precipitate proteins. An aliquot (200 μL) of the supernatant was incubated at 60° C. for 30 min. After derivatization, the samples were analyzed by LC-MS (methods); and (FIG. 5B) DON plasma to brain ratio analysis. Mice were administered DON (0.6 mg/kg, i.p.) and blood and brain were collected 1 h after DON administration. Plasma was isolated from blood samples as described in (FIG. 5A). Brains were collected following perfusion with PBS and frozen immediately at −80° C. Before bioanalysis, brains were weighed and n-butanol containing 3N HCl was added to each sample (5 μL/mg tissue) and homogenized using a pestle. Resulting homogenates were centrifuged at 16,000×g for 5 min to precipitate proteins and analyzed the same way as the plasma samples. All determinations in both (A) and (B) were carried out in triplicate. Error bars correspond to ±S.E.M; and\nWhen using plasma, DON was derivatized only using 3N HCl plus n-butanol and subsequently analyzed by LC-MS. To generate the standard curve to determine DON concentrations in plasma, DON (10 μL of 1 mM water solution) was added to untreated mouse plasma (90 μL) in a low retention micro-centrifuge tube. Standard solutions (100 μL) were then prepared by serial dilution to generate concentrations from 10 nM to 100 μM at half-log intervals. Prior to extraction, frozen plasma samples were thawed on ice. N-butanol (250 μL) containing 3N HCl was added directly to standards (50 μL), vortexed and centrifuged at 16,000×g for 5 minutes in low retention micro-centrifuge tubes to precipitate proteins. […] After derivatization, an aliquot of the reaction mixture (2 μL) was injected and analyzed by LC-MS as stated above. The area under the curve (AUC) representing the signal intensity of the extracted ion (m/z 218.0942) for each sample was used to generate the standard curve using Agilent Mass Hunter Quantitative analysis software. […] DON concentrations in plasma samples were determined by interpolation using the standard curve.\nWhen using brain, DON was derivatized only using 3N HCl plus n-butanol and subsequently analyzed by LC-MS. […] After derivatization, an aliquot of the reaction mixture (2 μL) was injected and analyzed by LC-MS as stated above. […] DON concentrations in brain samples were determined by interpolation using the standard curve. […]"}, "[2]": {"test": "DON concentration in plasma from DON-treated mice, direct versus derivatization protocols", "conditions": "male, C57BL/6, mouse, in vivo, iv, 1.6 mg/kg, 1.6 mg/kg i.v., 15 min after administration, N=3, ±S.D.", "procedure": "Mouse plasma samples were obtained 15 min after DON administration (1.6 mg/kg, i.v.). For LC-MS bioanalysis of underivatized DON from plasma, DON was extracted from plasma with methanol, dried and resuspended in H2O and separated in a Hypercarb column. For LC-MS bioanalysis of derivatized DON from plasma, DON was derivatized in butanol containing 3N HCl for 30 min at 60° C., dried, reconstituted in 30% acetonitrile and separated by RPC. Analytes eluting after each chromatographic separation were detected by QTOF MS. N=3 for each treatment. Error bars correspond to ±S.D.\nMethanol (250 μL) was added to plasma samples containing DON (50 μL); samples were centrifuged for 5 min at 16,000×g to precipitate proteins. […] Analytes were detected with an Agilent 6520 QTOF in MS mode as when analyzing derivatized DON by LC-MS.\n(§2) When using plasma, DON was derivatized only using 3N HCl plus n-butanol and subsequently analyzed by LC-MS. […] After derivatization, an aliquot of the reaction mixture (2 μL) was injected and analyzed by LC-MS as stated above. The area under the curve (AUC) representing the signal intensity of the extracted ion (m/z 218.0942) for each sample was used to generate the standard curve using Agilent Mass Hunter Quantitative analysis software. […] DON concentrations in plasma samples were determined by interpolation using the standard curve. […]"}, "[3]": {"test": "DON plasma pharmacokinetics in mice after i.v. administration (LC-MS after acidified butanol derivatization)", "format": "in vivo", "conditions": "male, C57BL/6, mouse, iv, 1.6 mg/kg i.v.", "procedure": "as §1, with “Plasma was isolated from blood samples as described in (FIG. 5A). Brains were collected following perfusion with PBS and frozen immediately at −80° C. Before bioanalysis, brains were weighed and n-butanol containing 3N HCl was added to each sample (5 μL/mg tissue) and homogenized using a pestle.” left out, “All determinations in both (A) and (B) were carried out in triplicate. Error bars correspond to ±S.E.M; and” left out\nas §2"}}, "note": "Read-outs that look alike come from different tables or passages of the source.", "data": [{"smiles": "[N-]=[N+]=CC(=O)CC[C@H](N)C(=O)O", "note": "[DON, 6-Diazo-5-oxo-L-norleucine]", "values": [{"measurement": "DON concentration in brain", "setting": "[1]; 0.6 mg/kg i.p., 1 h after administration, brains perfused with PBS, ±S.E.M.", "value": "0.22±0.18", "unit": "nmol/g tissue"}, {"measurement": "Kp at 1 h", "setting": "[1]; male, C57BL/6, mouse, intraperitoneal, 0.6 mg/kg, at 1 h, read-out: brain/plasma ratio", "value": 0.1}, {"measurement": "Kp at 1 h", "setting": "[1]; male, C57BL/6, mouse, ip, 0.6 mg/kg i.p., 1 h, read-out: brain to plasma ratio", "value": "~0.1"}, {"measurement": "concentration at 1 h", "setting": "[1]; male, C57BL/6, mouse, plasma, ip, 0.6 mg/kg i.p., 1 h after administration, ±S.E.M.", "value": "1.7 ± 0.5", "unit": "µM"}, {"measurement": "concentration at 15 min", "setting": "[2]; read-out: DON concentration in plasma, derivatization method (acidified butanol, LC-MS)", "value": 4.2, "unit": "µM"}, {"measurement": "concentration at 15 min", "setting": "[2]; read-out: DON concentration in plasma, direct method (underivatized DON, Hypercarb LC-MS)", "value": 3.9, "unit": "µM"}, {"measurement": "AUC", "setting": "[3]; in vivo, 0.25-6 h, read-out: exposure of DON estimated from the area under the curve (AUC)", "value": 8, "unit": "µM·h"}, {"measurement": "half-life", "setting": "[3]", "value": 1.2, "unit": "h"}]}]}
